91 compounds from a melting point compilation (Tetko et al.; mined from patent text by program, amines drawn as free bases though some values may be those of a salt) can be followed below.

The term melting point denotes the temperature, or range, at which the solid turns liquid. In the case of `N#Cc1ccc2oc(-c3ccc(O)cc3)cc(=O)c2c1`, the melting point is 296 to 298 °C.
The figure for `Cc1cc(N)c(C)c2c1OC(C)(C)C2=O` is 124 to 126 °C; for `COc1ccccc1-n1c(=O)[nH]c2c(C(N)=O)nc(N[C@H]3CC[C@H](OC(N)=O)CC3)nc21` it is 157 to 160 °C.
The figure for `CC(=O)C=Cc1c(C)c(C)c(C)c2c1OC(C)(C)C2` is 125 °C.
In the case of `CNC(=O)Cn1c(-c2ccc(Br)o2)nc2cccnc21`, the melting point was 187 to 191 °C.
In the case of `COc1ccc(-c2coc3ccc(-c4nnc(SCc5ccc(OC)c(C(F)(F)F)c5)o4)cc23)cc1`, the melting point was in the range of 162 to 163 °C.
The compound `CCC(C)(Oc1ccc(CC(=O)c2ccc3c(c2)CCC3)cc1)C(=O)O` (stereo unspecified) showed a melting point of 160 to 161 °C.
The value for `Cc1ccc(S(=O)(=O)OCCc2ccc3cc(Br)ccc3n2)cc1` was 107 to 109 °C; that for `CCCCCCCCCCCCCCCCCCOc1cc(N)cc(C(=O)N(CC(=O)O)CC(=O)O)c1` was 108 to 120 °C; that for `O=C(CC1CCC1)N[C@H]1CC[C@H](CCN2CCN(c3nccc4c3OCC4)CC2)CC1` was 148 °C.
The value for `Cc1cc(Nc2ncnc3ccn(CCNC(=O)C(C)(C)C)c23)ccc1Oc1cccc2sncc12` was 189 to 191 °C.
The figure for `CCOP(=O)(OCC)c1cnn(-c2ccc(Cl)c(Cl)c2Cl)c1N` is 114 °C; for `COc1ccc(-n2nc(O)c3c(=O)c4ccc(Cl)cc4[nH]c3c2=O)cc1` it is 371 to 373 °C; for `CCOC(=O)CC(=O)Nc1ccc(F)cc1` it is 68 to 71 °C.
On to `COc1ccc(Cl)c2c1c1c(n2Cc2ccccc2)CCCC1C(N)=O` (stereo unspecified), for which the melting point was 205 to 208 °C.
The value for `COc1cc(/C=C/C(=O)NCCN2CCC(c3c[nH]c4ccccc34)CC2)ccc1O` was 115 to 135 °C.
`Cn1cccc1C(N)=S` gave a melting point of 87 to 88 °C.
The value for `Cc1cc(C)n(C(=O)C2c3ccccc3Oc3ccccc32)n1` was 114 to 115 °C; that for `Brc1ccc2sc3ccccc3c2c1` was 112 to 116 °C; that for `CCOCCOc1ccccc1COc1ccc2c(c1)C=C(C(=O)Nc1ccc(CN(C)C3CCOCC3)cc1)CCS2(=O)=O` was 132 to 136 °C.
The figure for `COc1cccc(Nc2ccnc(Nc3cc(OC)c(OC)c(OC)c3)n2)c1` is 78 °C; for `Cc1ccn2cc(CC(=O)N3CCN(c4ccc5[nH]c(=O)ccc5c4)CC3)nc2c1` it is over 250 °C.
The value for `CCc1cccc(C)c1CNc1cc(C(=O)NC)nc2c1nc(C)n2C` was 236 to 238 °C; that for `CCOC(=O)c1cnc2ccc(OC)nc2c1Nc1ccc(OC)cc1` was 115 to 117 °C; that for `CCOc1c2ccccc2c(C=O)c2ccccc12` was 88 to 90 °C.
Compound `CC(=O)Cn1cnc2c1c(=O)[nH]c(=O)n2C` returned a melting point of under 295 °C.
`CCCOc1ccc(S(=O)(=O)Nc2ccc3[nH]ncc3c2)cc1-c1nc2cc3nc[nH]c3cc2c(=O)[nH]1`: the melting point lay in the range of 261 to 263 °C.
The value for `C=Cc1ccc(COc2ccc(CO)cc2)cc1` was 110 to 112 °C; that for `Cn1ccc2c(NC(=O)c3ccccc3O)cccc21` was 211 °C.
The figure for `CCCOC(=O)C1Oc2ccccc2Cc2ccccc2O1` is 82 to 85 °C; for `CNC(=O)c1c(OC(C)C)c2cc(OC)ccc2n1C` it is 85 to 86 °C; for `Nc1ccc(OCc2c(Cl)cccc2Cl)cc1[N+](=O)[O-]` it is 155 °C.
The value for `O=C(OCc1ccccc1)c1cccc(OCc2ccccc2)c1[N+](=O)[O-]` was 81.7 to 84.7 °C; that for `Cc1cc(C(O)(C=Cc2ccc(Cl)cc2)C(F)(F)F)ccc1N` (stereo unspecified) was 126 to 129 °C; that for `Nc1c(Cl)c(C(=O)O)nc(Cl)c1C(F)(F)F` was 173 °C.
In turn, `CCOC(=O)C1=Cc2cc(Cl)cc(Br)c2OC1C(F)(F)F` (stereo unspecified) came in with a melting point of 101 to 102 °C.
The figure for `O=C1CC2(C(=O)N1)C(=O)N(Cc1ccc(Cl)c(Cl)c1)c1ccc(F)cc12` (stereo unspecified) is 253 to 254 °C; for `CS(=O)(=O)Nc1cc2occ(C(=O)O)c(=O)c2cc1Oc1ccccc1` it is over 250 °C; for `CCCCCCCCCCCCSC(C)Cn1ccnc1` (stereo unspecified) it is 79.5 to 81 °C.
The value for `Cn1cnc([N+](=O)[O-])c1NCCN1CCC(Nc2nc3cccnc3n2Cc2ccc(F)cc2)CC1` was 199 °C; that for `Nc1ccc2ccc(Oc3cccc(F)c3)nc2n1` was 165 °C; that for `COc1cc(NC(=O)c2cccc(CSc3cnccn3)c2)cc(OC)c1OC` was 112 to 119 °C.
Regarding `COc1cccc(-c2nn(Cc3oc4ccccc4c(=O)c3-c3ccccc3)c3ncnc(N)c23)c1`, the melting point lay in the range of 111 to 115 °C.
Compound `O=C(NCCN1CCOCC1)NCc1ccc2c(c1)Cc1c(-c3ccsc3)n[nH]c1-2` gave a melting point of 168 to 170 °C.
Regarding `Cn1ncc(Cl)c(NCCCO)c1=O`, the melting point is 65 to 66 °C.
The figure for `Cn1c(=O)c2c(Cl)cccc2n2cnc(C(=O)OCC3CC3)c12` is 214 °C; for `CCCOC(=O)Oc1ccc(-c2nc3c(N)nc(N)nc3nc2N)cc1` it is 302 to 308 °C.
The value for `Cc1ccc([N+](=O)[O-])cc1S(=O)(=O)n1ccnc1C` was 159 to 161 °C.
The value for `OCCC12CC(c3ccccc31)c1ccccc12` was 99 to 100 °C.
Regarding `O=C1CCN2C(=O)OCc3cccc1c32`, the melting point was in the range of 130 to 131 °C.
The compound `O=C(NCc1cccnc1)c1ccc2n1Cc1ccccc1N(C(=O)c1ccccc1)C2` registered a melting point of 197 °C.
The value for `COC(=O)C(=O)c1ccc(OCc2ccc3ccccc3c2)cc1` was 101 to 102 °C; that for `CC(C)(O)Cn1c(CON)nc2c(N)nc3ccccc3c21` was 178 to 179 °C; that for `CC(=O)OCC[C@H](NC(=O)C(F)(F)F)C(=O)O` was 134 to 136 °C.
The figure for `CCCCOc1c(N(C)C(=O)OC(C)(C)C)n(CC2CC2)c(=O)c2ccc(OCC(N)=O)cc12` is 209 to 210 °C; for `CC1=NC(C)(C)SC1=NO` it is 159 to 161 °C; for `Cc1[nH]cnc1CSCCN=C(N)N` it is 141 to 142 °C.
The value for `CCCCc1ccc(-c2csc(-c3ccc(C(=O)O)cc3)n2)cc1` was 263 to 265 °C; that for `CC(C)(C)OC(=O)NCCc1c[nH]c2ccc(CO)cc12` was 129 to 130 °C; that for `CN(C)Cc1nnc2n1-c1ccc(Cl)cc1C(c1ccccc1)=NC2` was 168 to 171 °C.
In turn, `O=C(Cl)N1CC(Sc2ccc(Cl)cc2)C1` had a melting point of 47 to 48 °C.
The value for `CNC(=O)c1ccc(-c2nn(Cc3ccccc3)c3ccccc23)o1` was 182 to 183 °C; that for `CCn1c(C(=O)c2cc(C)cc(CCC#N)c2)c(C(C)C)c(=O)[nH]c1=O` was 173 to 174 °C; that for `CN1C(=O)Cc2cc(C3=NNC(=O)CC3)ccc21` was 261 to 264 °C.
The figure for `OCc1cn(-c2ccc(F)c(Cl)c2)cn1` is 130 to 135 °C; for `CN(C)CCOc1cc2c(Nc3ccc(Oc4ccccc4)cc3)c(C#N)cnc2cn1` it is 159 to 161 °C.
The figure for `COc1ccccc1C1(c2ccccc2OC)CC1` is 146 to 149 °C; for `CCCn1nc(OCc2ccccc2)cc1/C=C/C(=O)OCC` it is 58 to 59 °C; for `COC(=O)COc1cccc2c(CCN=[N+]=[N-])coc12` it is 95 to 97 °C.
Compound `O=c1[nH]c(=O)n(C2OC(CO)C(O)C2F)cc1C=CBr` (stereo unspecified) gave a melting point of 80 to 83 °C.
Regarding `COc1cc2c3c(Br)cc(OC)c(OC)c3n(S(C)(=O)=O)c2cc1OC`, the melting point was in the range of 178 to 179 °C.
In turn, `CC(C)(C#N)ON1C(C)(C)CNC(=O)CC1(C)C` displayed a melting point of 130 to 134 °C.
The value for `CS(=O)(=O)OCCOCCOC(=O)Cc1ccccc1Nc1c(Cl)cccc1Cl` was 87 °C.
The value for `CON=C(OCC(=O)OC)C(Cl)=Cc1cc(-n2ncc(C(F)(F)F)c(C)c2=O)c(F)cc1Cl` was 75 to 76 °C; that for `CCOC(=O)CCCCCOc1cc2c(c(Cl)c1Cl)C(=O)C(C)(C1CCCC1)C2` (stereo unspecified) was 69 to 72 °C; that for `O=C1NCc2nc3ccc(Cl)cc3c(=O)n2-c2ccccc21` was 286 to 288 °C.
The figure for `CC(=O)N(CC(=O)N1c2ccccc2N(Cc2ccccc2)C(=O)[C@H]2CCC[C@H]21)C(=O)CCc1ccccc1` (relative stereo) is 138 to 140 °C; for `CC(C)(O)c1ccc(CNC(=O)c2cccnc2Oc2ccc(F)cc2F)cc1` it is 92 to 94 °C; for `COC1=CC2=CCC3C(=CCC4(C)C(=O)CCC34)C2(C)CC1` (stereo unspecified) it is 153 °C.
In turn, `O=C(NCCO)c1ccnc(-c2cccc3cc(Cc4cccc(C(F)(F)F)c4)sc23)c1F` showed a melting point of 110 to 111 °C.
The value for `O=C(CCCCC1CCSS1)N1CCc2ccccc21` (stereo unspecified) was 65 to 66 °C; that for `O=C(O)C(=O)N1CCC(=Cc2ccccc2)CC1` was 125 °C; that for `CCOC(=O)C1CC2=C(CO1)C(=O)c1cc3ccccc3c(OC(C)=O)c1C2=O` (stereo unspecified) was 196 to 198 °C.
The value for `CC(C)(C)c1ccc(C(=O)Nc2cn3cc(-n4cccc4)ccc3n2)cc1` was 274 to 275 °C; that for `COc1ccc(N2CCN(c3c(C)c(C)c4c(c3C)C(C)(O)C(C)(C)O4)CC2)cc1` (stereo unspecified) was 139 to 141 °C; that for `CC(=O)OCC1OC(n2cc(C=O)c3c(F)cccc32)C(OC(C)=O)C(OC(C)=O)C1OC(C)=O` (stereo unspecified) was 190 to 192 °C.
The figure for `O=C(CCCCCNCC(O)c1ccccc1)OCc1ccccc1` (stereo unspecified) is 77 to 78 °C; for `CSc1ccc(/C=C2/C(C)=C(C(C)N(O)C(N)=O)c3cc(F)ccc32)cc1` (stereo unspecified) it is 150 to 152 °C; for `O=C(O)c1cn2c3c(c(N4CCNCC4)ccc3c1=O)CCC2` it is 267 to 268 °C.
In turn, `O=c1ccn(-c2ccccc2N2CCOCC2)nc1-c1ccnn1-c1ccccc1` yielded a melting point of 200 to 201 °C.
Regarding `OCCCNc1nnc(NCCCO)c2cc3ccccc3cc12`, the melting point fell in the range of 225 to 228 °C.
